Data as given in US4734275A, “Anti-curare agents” (priority 1986, dated 1988).
Where two headings read alike, the source gives them in different places.

Experiments:
central nervous system = experiment: Central nervous system stimulatory effects: pentobarbital-induced loss of righting reflex (LRR); type: in vivo, male Sprague-Dawley rats; details: for Loss of righting reflex, Onset / Loss of righting reflex, Duration: with 35 mg/kg pentobarbital s.c., LF-10, LF-14 1.1 mg/kg, 4-AP, 3,4-DAP 1.5 mg/kg, mean; for Loss of righting reflex, Onset: control 11.4; for Loss of righting reflex, Duration: control 71.9; for effect on pentobarbital induced LRR / barbiturate CNS effects (in words): with pentobarbital 35 mg/kg s.c.
Experimental: Tests were conducted to determine the stimulatory effects of the compounds of the present invention upon the central nervous system. Male Sprague-Dawley rats were injected subcutaneously with 35 mg/kg of pentobarbital alone, or together with 1.1 mg/kg of LF-10 or LF-14, or 1.5 mg/kg of 4-AP or 3,4-DAP (Foldes, et al., Anesthesiology 57:A-273, 1982). The time of onset and duration of the loss of righting reflex (LRR) was observed.

[1] = tested on: sciatic nerve-tibialis anterior muscle preparations; experiment: Antagonism of relaxant-induced neuromuscular block in vivo, rat sciatic nerve-tibialis anterior muscle; parameters: species or system male Sprague-Dawley rats; details: for Relative Molar Potency, In Vivo: 4-Aminopyridine = 1.0; for ED 50 of Antagonists, In Vivo / ED50: i.v., means + SEM of 4 experiments, dose raising twitch tension to 50% of control in >90% steady state block; for ED50: Rattus norvegicus, iv, read-out: ED 50 of Antagonists, In Vivo
Excerpt: (§1) In in vitro tests to determine neuromuscular potency, phrenic nerve-hemidiaphragm preparations from male Sprague-Dawley rats were suspended in modified Krebs solution. In vivo experiments focused on the sciatic nerve-tibialis anterior muscle preparations in male Sprague-Dawleyrats. In each case, stimulation of nerves was accomplished via bipolar platinum electrodes, with supramaximal impulses of 0.2 msec duration at 0.1 HZ, and the isometric twitches were continuously recorded. Greater than 90 % steady state neuromuscular block was achieved either by addition of appropriate concentrations (in vitro) or continuous i.v. infusions (in vivo) of either d-tubocurarine or pancuronium. Antagonism of the induced neuromuscular block was accomplished by the addition of increments of 4-AP, 3,4-DAP, LF-10 or LF-14.
(§2) **The concentration in vitro or the i.v. dose that will increase twitch
(§3) tension to 50% of control in the presence of the concentration or dose of
(§4) muscle relaxant that caused a >90% steady state block.

[2] = tested on: phrenic nerve-hemidiaphragm preparations; experiment: Antagonism of relaxant-induced neuromuscular block in vitro, rat phrenic nerve-hemidiaphragm; type: cell-based, male Sprague-Dawley rats; parameters: ED 50 of Antagonists, In Vitro: unit not given here; details: for Relative Molar Potency, In Vitro: 4-Aminopyridine = 1.0; for ED 50 of Antagonists, In Vitro: means + SEM of 4 experiments, concentration raising twitch tension to 50% of control in >90% steady state block
Excerpt: as §1, §2, §3, §4

[3] = background; Marshall 1982; cited from earlier work
[4] = tested on: anticholinesterase activity; details: background; cited from earlier work
neuromuscular blocks = details: background; Bowman and Savage 1981; Agoston et al. 1978; cited from earlier work
[5] = molar basis, nondepolarizing muscle relaxants
[6] = neuromuscular blocks induced by curare

Molecule | Loss of righting reflex, Onset (central nervous system) [min] | Loss of righting reflex, Duration (central nervous system) [min] | effect on pentobarbital induced LRR / barbiturate CNS effects (in words) (central nervous system) | Relative Molar Potency, In Vivo ([1]; muscle relaxant Pancuronium) | Relative Molar Potency, In Vivo ([1]; muscle relaxant d-Tubocurarine) | Relative Molar Potency, In Vitro ([2]; muscle relaxant Pancuronium) | Relative Molar Potency, In Vitro ([2]; muscle relaxant d-Tubocurarine) | ED50 ([1]; muscle relaxant Pancuronium) [mg/kg] | ED50 ([1]; muscle relaxant d-Tubocurarine) [mg/kg] | also measured
1,1-dimethyl-(3,4-pyridyl)-urea [LF-10] | 14.8 | 63.7 | some effect on shortening the duration of LRR | 2.3 | 7.5 | 3.4 | 4.3 |  |  | ED 50 of Antagonists, In Vivo ([1]; muscle relaxant Pancuronium): 0.13 + 0.00 mg/Kg; ED 50 of Antagonists, In Vivo ([1]; muscle relaxant d-Tubocurarine): 0.09 + 0.00 mg/Kg; ED 50 of Antagonists, In Vitro ([2]; muscle relaxant Pancuronium): 0.5; ED 50 of Antagonists, In Vitro ([2]; muscle relaxant d-Tubocurarine): 0.4
Nc1ccncc1N [3,4-Diaminopyridine, 3,4-diaminopyridine, reference compound] | 13.3 | 78.9 |  | 0.8 | 1.6 | 2.7 | 2.1 | 0.18 | 0.12 | 
Nc1ccncc1 [4-Aminopyridine, 4-aminopyridine, reference compound] | 15.2 | 42.0 | significantly (p<0.001) reduce the central nervous system effects of barbiturates |  |  |  |  | 0.13 | 0.17 | undesirable side effects (in words) [3]: elevated blood pressure, anxiety, insomnia, and a level of central nervous system stimulation which may manifest itself ultimately in convulsions; anticholinesterase activity (in words) [4]: no anticholinesterase activity; reversal of muscle relaxants and antagonism of other neuromuscular blocks (in words) (neuromuscular blocks): not only reverse the side effects of clinically used muscule relaxants, but also antagonize the effects of the other neuromuscular blocks listed above
CN(C)C(=O)Nc1cnccc1N [LF-14, 1,1-Dimethyl-3-(4-amino-3-pyridyl)-urea] | 12.4 | 75.7 | substantially no effect on the pentobarbital induced LRR | 8.2 | 9 | 17 | 17 | 0.04 | 0.04 | stimulatory effects on the central nervous system (in words) (central nervous system; rat, in vivo): no stimulatory effects on the central nervous system; neuromuscular potency / antagonism (in words), in vivo [1, 5]: greatest both in vitro and in vivo; molar potency relative to 4-AP, in vivo [1, 6]: 9 times that of 4-AP; neuromuscular potency / antagonism (in words), in vitro [2, 5]: greatest both in vitro and in vivo; molar potency relative to 4-AP, in vitro [2, 6]: 17 times that of 4-AP
